In ChEMBL document CHEMBL1129270, “Aza-peptide analogs as potent human immunodeficiency virus type-1 protease inhibitors with oral bioavailability” (J Med Chem, 1996):

Tests used:
[1] = target: Human immunodeficiency virus type 1 protease (Human immunodeficiency virus 1) (UniProt Q72874); test: In vivo for antiviral activity (ED90) against HIV-1 protease.; type: organism-based
[2] = target: Human immunodeficiency virus type 1 protease (Human immunodeficiency virus 1) (UniProt Q72874); test: In vivo antiviral activity (IC50) against HIV-1 protease.; type: organism-based
[3] = Plasma Concentration after 120 min of oral administration to mice; type: ADME, organism-based; settings: mouse
[4] = Plasma Concentration after 30 min of oral administration to mice; type: ADME, organism-based; settings: mouse
[5] = Plasma Concentration after 90 min of oral administration to mice; type: ADME, organism-based; settings: mouse
[6] = Compound was tested in vivo for antiviral activity (C120/ED50) against HIV Protease.; type: functional
Mus musculus (mouse) = test: Plasma Concentration after 60 min of oral administration to mice

| Compound | ED90 [1] [nM] | ED50 [2] [nM] | concentration at 2 h [3] [nM] | concentration at 0.5 h [4] [nM] | concentration at 1.5 h [5] [nM] | C120/ED50 [6] | concentration at 1 h (Mus musculus (mouse)) [nM] |
| --- | --- | --- | --- | --- | --- | --- | --- |
| CC(C)(C)NC(=O)[C@@H]1C[C@@H]2CCCC[C@@H]2CN1C[C@@H](O)[C@H](Cc1ccccc1)NC(=O)[C@H](CC(N)=O)NC(=O)c1ccc2ccccc2n1 | 10 | 4.5 |  |  |  |  |  |
| CCOC(=O)NC(C(=O)NN(CC1CCCCC1)C[C@@H](O)[C@H](Cc1ccccc1)NC(=O)C(NC(=O)OC)C(C)C)C(C)C (some centres undefined) | 100 | 29 | 6000 | 3800 | 5800 | 207 | 2200 |
| CCOC(=O)NC(C(=O)NN(CC1CCCCC1)C[C@@H](O)[C@H](Cc1ccccc1)NC(=O)C(NC(=O)OCCOC)C(C)C)C(C)C (some centres undefined) | 100 | 24 | < 200 | < 200 | < 200 |  | < 200 |
| COC(=O)N[C@H](C(=O)N[C@@H](Cc1ccccc1)C(O)CN(Cc1ccc(OC)cc1)NC(=O)[C@@H](NC(=O)OC)C(C)C)C(C)C (some centres undefined) | 30 | 9 | < 200 | < 200 | < 200 |  |  |
| C=CCOC(=O)NC(C(=O)N[C@@H](Cc1ccccc1)[C@H](O)CN(CC1CCCCC1)NC(=O)C(NC(=O)OCC=C)C(C)C)C(C)C (some centres undefined) | 1000 | 83 | 1000 | 800 | 900 | 12 | 1200 |
| COC(=O)NC(C(=O)NN(CC1CCCCC1)C[C@H](O)[C@H](Cc1ccccc1)NC(=O)[C@H](CC(N)=O)NC(=O)c1ccc2ccccc2n1)C(C)C (some centres undefined) | 100 | 18 |  |  |  |  |  |
| COC(=O)N[C@H](C(=O)N[C@@H](Cc1ccccc1)C(O)CN(Cc1ccc(C(F)(F)F)cc1)NC(=O)[C@@H](NC(=O)OC)C(C)C)C(C)C (some centres undefined) | 100 | 17 |  |  |  |  |  |
| COC(=O)N[C@H](C(=O)N[C@@H](Cc1ccccc1)C(O)CN(Cc1ccc(F)cc1)NC(=O)[C@@H](NC(=O)OC)C(C)C)C(C)C (some centres undefined) | 1000 | 49 |  |  |  |  |  |
| COc1ccc(CN(C[C@H](O)[C@H](Cc2ccccc2)NC(=O)[C@H](CC(N)=O)NC(=O)c2ccc3ccccc3n2)NC(=O)C(NC(=O)OCc2ccccc2)C(C)C)cc1 (some centres undefined) | 30 | 15 |  |  |  |  |  |
| COC(=O)NC(C(=O)NN(Cc1ccc(OC)cc1)C[C@H](O)[C@H](Cc1ccccc1)NC(=O)[C@H](CC(N)=O)NC(=O)c1ccc2ccccc2n1)C(C)C (some centres undefined) | 1000 | 118 |  |  |  |  |  |
| COCCOCCOC(=O)NC(C(=O)N[C@@H](Cc1ccccc1)[C@H](O)CN(CC1CCCCC1)NC(=O)C(NC(=O)OCCOCCOC)C(C)C)C(C)C (some centres undefined) | 10000 | 41 |  |  |  |  |  |
| COC(=O)N[C@H](C(=O)N[C@@H](Cc1ccccc1)C(O)CN(CC1CCCCC1)NC(=O)[C@@H](NC(=O)OC)C(C)C)C(C)C (some centres undefined) | 100 | 18 |  |  |  |  |  |
| COC(=O)N[C@H](C(=O)N[C@@H](Cc1ccccc1)C(O)CN(Cc1ccc(C#N)cc1)NC(=O)[C@@H](NC(=O)OC)C(C)C)C(C)C (some centres undefined) | 1000 | 68 |  |  |  |  |  |
| COCCOC(=O)NC(C(=O)NN(CC1CCCCC1)C[C@@H](O)[C@H](Cc1ccccc1)NC(=O)C(NC(=O)OC)C(C)C)C(C)C (some centres undefined) | 100 | 28 | 3100 | 1000 | 3000 | 111 | 2800 |
| CCOC(=O)NC(C(=O)N[C@@H](Cc1ccccc1)[C@H](O)CN(CC1CCCCC1)NC(=O)C(NC(=O)OCC)C(C)C)C(C)C (some centres undefined) | 1000 | 55 | 8700 | 6700 | 7800 | 158 | 6700 |
| COC(=O)N[C@H](C(=O)N[C@@H](Cc1ccccc1)C(O)CN(Cc1ccc(OC)c(OC)c1OC)NC(=O)[C@@H](NC(=O)OC)C(C)C)C(C)C (some centres undefined) | 100 | 28 |  |  |  |  |  |
| CCOC(=O)NC(C(=O)N[C@@H](Cc1ccccc1)[C@H](O)CN(CC1CCCCC1)NC(=O)C(NC(=O)OCCOC)C(C)C)C(C)C (some centres undefined) | 100 | 15 | 1500 | 1000 | 1000 | 100 | 2200 |
| COC(=O)NC(C(=O)NN(CC(C)C)C[C@H](O)[C@H](Cc1ccccc1)NC(=O)[C@H](CC(N)=O)NC(=O)c1ccc2ccccc2n1)C(C)C (some centres undefined) | 300 | 63 |  |  |  |  |  |
| COC(=O)N[C@H](C(=O)N[C@@H](Cc1ccccc1)[C@H](O)CN(CC1CCCCC1)NC(=O)[C@@H](NC(C)=O)C(C)C)C(C)C | 1000 | 300 |  |  |  |  |  |
| COCCOC(=O)NC(C(=O)N[C@@H](Cc1ccccc1)[C@H](O)CN(CC1CCCCC1)NC(=O)C(NC(=O)OCCOC)C(C)C)C(C)C (some centres undefined) | 300 | 79 | < 500 | 2700 | < 500 |  | 1100 |
| COC(=O)N[C@H](C(=O)N[C@@H](Cc1ccccc1)C(O)CN(CCC(C)C)NC(=O)[C@@H](NC(=O)OC)C(C)C)C(C)C (some centres undefined) | 30 | 2.7 | 300 | < 200 | 400 | 111 | 600 |
| CC(C)C(NC(=O)OCc1ccccc1)C(=O)NN(CC1CCCCC1)C[C@H](O)[C@H](Cc1ccccc1)NC(=O)[C@H](CC(N)=O)NC(=O)c1ccc2ccccc2n1 (some centres undefined) | 30 | 9.8 | 1100 | 300 | 800 | 73 | 200 |
| CCOC(=O)NC(C(=O)NN(CC1CCCCC1)C[C@H](O)[C@H](Cc1ccccc1)NC(=O)[C@H](CC(N)=O)NC(=O)c1ccc2ccccc2n1)C(C)C (some centres undefined) | 30 | 9.4 |  |  |  |  |  |
| COC(=O)N[C@H](C(=O)N[C@@H](Cc1ccccc1)C(O)CN(Cc1ccc(C)cc1)NC(=O)[C@@H](NC(=O)OC)C(C)C)C(C)C (some centres undefined) | 30 | 6.2 | < 200 | < 200 | < 200 |  | < 200 |
| COC(=O)N[C@H](C(=O)N[C@@H](Cc1ccccc1)C(O)CN(Cc1ccc(O)cc1)NC(=O)[C@@H](NC(=O)OC)C(C)C)C(C)C (some centres undefined) | 1000 | 150 |  |  |  |  |  |
| COC(=O)N[C@H](C(=O)N[C@@H](Cc1ccccc1)C(O)CN(Cc1cccs1)NC(=O)[C@@H](NC(=O)OC)C(C)C)C(C)C (some centres undefined) | 100 | 17 |  |  |  |  |  |
| COCCOC(=O)NC(C(=O)NC(Cc1ccccc1)C(O)CN(CC1CCCCC1)NC(=O)C(NC(=O)OC)C(C)C)C(C)C (centres undefined) | 100 | 14 | < 500 | < 500 | < 500 |  | < 500 |
| CCOC(=O)NC(C(=O)N[C@@H](Cc1ccccc1)[C@H](O)CN(CC1CCCCC1)NC(=O)C(NC(=O)OC)C(C)C)C(C)C (some centres undefined) | 1000 | 72 | 1400 | 3200 | 1200 | 19 | 400 |
| COC(=O)N[C@H](C(=O)N[C@@H](Cc1ccccc1)C(O)CN(CC(C)C)NC(=O)[C@@H](NC(=O)OC)C(C)C)C(C)C (some centres undefined) | 1000 | 23 |  |  |  |  |  |
| CC(C)CN(C[C@H](O)[C@H](Cc1ccccc1)NC(=O)[C@H](CC(N)=O)NC(=O)c1ccc2ccccc2n1)NC(=O)C(NC(=O)OCc1ccccc1)C(C)C (some centres undefined) | 30 | 12 |  |  |  |  |  |
